{"source": "patent US20170172959A1", "about": "“D-SERINE FOR THE TREATMENT OF VISUAL SYSTEM DISORDERS” (Allergan, Inc., priority 2011, published 2017)", "key": {"[1]": {"test_system": "primary visual cortex of adult rats", "assay": "LTP in visual cortex slice (fEPSP amplitude after theta burst stimulation)", "format": "cell-based", "details": "adult Sprague Dawley rat visual cortex slices; compound infused 15 minutes before LTP induction; LTP values at 30 minutes after induction; FIG. 1", "protocol": "LTP in Visual Cortex Slice: Following decapitation of the rat, the brain was rapidly removed and immersed in ice-cold artificial cerebrospinal fluid (ACSF) containing 124 mM NaCl, 3 mM KCl, 1.25 mM KH2PO4, 3.4 mM CaCl2, 2.5 mM MgSO4, 26 mM NaHCO3, and 10 mM D-glucose. A block of visual cortex was created by removing the frontal 2/3 portion of the brain and the cerebellum. Coronal visual cortex slices of 375 μm were prepared from adult Sprague Dawley (SD) rats using a vibratome (VT 1000 S, Leica). The slices were maintained in an interface recording chamber perfused with preheated ACSF. Slices were continuously perfused with this solution at a rate of 1.00-1.50 ml/min while the surface of the slices was exposed to warm, humidified 95% O2/5% CO2 and maintained at 31±1° C. Visual cortex slices were allowed to recover for 1 hr before recording began. […] This was repeated 2 additional times with a 1 minute intertrain interval, and the level of LTP was recorded for at least 30 min. Changes in amplitude of the synaptic response were used to measure the extent of LTP because it was determined to be the more consistent parameter than the slope of the response. […] Statistical comparisons were done with LTP values recorded at 30 minutes after induction."}, "[2]": {"test_system": "slices of kitten visual cortex", "details": "Neuroscience Letters 303 (2001) 95-98; cited from earlier work"}, "[3]": {"test_system": "blue-light treated Long-Evans rats", "assay": "Contrast sensitivity by sweep VEP in rats with retinal damage induced by blue-light exposure", "format": "in vivo, rat", "details": "100 or 600 mg/kg injected, saline control, cross-over; measured 30 minutes after treatment; spatial frequency 0.575 cpd; sixteen (600 mg/kg) and fifty weeks (100 mg/kg) after blue-light treatment; FIG. 3", "protocol": "Two doses of D-serine were tested and vehicle (saline) was used as a control. Half of the rats were injected with either 100 or 600 mg/kg D-serine and the other half with saline in the first test; cross-over exposure took place one week later; the spatial frequencies were fixed at 0.575 cycles per degree (cpd). In FIG. 3, the mean values of contrast sensitivity are shown for rats treated with D-serine or saline, with a baseline taken prior to treatment (“pre”) and the contrast sensitivity measured 30 minutes after treatment (“post”).\nSweep visually evoked potential (sweep VEP, sVEP), which was first introduced by Regan in 1973, has become an important technique to measure visual function (VF). It is an objective method that can be used to assess contrast sensitivity (CS) in infants, young children and people with special needs. It was adapted to measure CS in animals.\nVEP recording: The recording electrodes were permanently implanted into the right visual cortex of Long Evans rats at lambda and 4.5 mm lateral to the midline, to a depth of 800 microns (layer III/IV). […]\nVisual stimuli: Stimuli were presented on a CRT computer monitor and consist of full-field sine-wave gratings at fixed special frequency (0.5, 0.575 or 0.65 cpd in FIG. 1 and 0.575 cpd in FIG. 2), reversing at 6.25 Hz. […] Contrast sensitivity (CS) is calculated as 1/CT."}}, "note": "Entries after “also recorded” stand apart in the source; their conditions may differ.", "data": [{"smiles": "N[C@H](CO)C(=O)O", "note": "[D-serine]", "values": [{"measurement": "long-term potentiation (LTP) in the primary visual cortex", "setting": "[1]", "value": "dose-dependently facilitates long-term potentiation (LTP); also recorded: significantly enhanced the LTP"}, {"measurement": "LTP enhancement by D-serine alone", "setting": "[2]", "value": "did not enhance LTP"}, {"measurement": "effect on LTP suppression by the co-agonist site antagonist 7-chlorokynurenic acid", "setting": "[2]", "value": "only produced a reversal of the suppressant effects"}, {"measurement": "contrast sensitivity", "setting": "[3]", "value": "improved the contrast sensitivity; also recorded: dose-dependent improvement in contrast sensitivity; also recorded: enhances contrast sensitivity and visual function"}]}]}
